The results in this text go back to article PMC7933930, “Development of a small molecule that corrects misfolding and increases secretion of Z α1‐antitrypsin” (EMBO Molecular Medicine, 2021).

In general, pEC50 refers to the negative decadic logarithm of the EC50, by convention in mol/L. A higher pEC50 goes with a small EC50.

The subject of data set [1] is Z α1‐antitrypsin polymers in CHO cells. In words: Soluble and insoluble polymers in CHO cells expressing Z α1‐antitrypsin (NP‐40 fractions, 2C1 immunoprecipitation, immunoblot). The class given is cell-based. The settings on record: pre‐treatment 48 h with 10 μM GSK716, CHO cells induced with doxycycline. The method, then:
Figure 2 GSK716 inhibits polymerisation of Z α1‐antitrypsin in cell models of disease • A GSK716 was added to CHO‐TET‐ON‐Z‐A1AT cells (Ordóñez et al, 2013) with simultaneous induction of Z α1‐antitrypsin expression using doxycycline, and polymer load was quantified with the 2C1 monoclonal antibody that is specific to pathological polymers of α1‐antitrypsin (Miranda et al, 2010). […] Data were normalised to vehicle and a control compound from the GSK716 series at saturating concentration. […] It induced an approximately threefold increase in secreted levels of Z α1‐antitrypsin compared with vehicle control. This was apparent even after polymers had been allowed to form. Scale bar: 100 µm. Data presented as mean ± SD, n = 8 (secretion) and n = 6 (polymer inhibition). • E CHO tetracycline‐inducible cells expressing Z α1‐antitrypsin were induced with 0.5 μg/ml doxycycline for 48 h and treated with 10 μM GSK716. […] For every time point, NP‐40‐soluble and NP‐40‐insoluble fractions were separated and immunoprecipitated with the 2C1 mAb and resolved by 4–12% w/v SDS–PAGE and α1‐antitrypsin detected by immunoblotting. […] Cell viability was measured by Cell Counting Kit‐8. […] Samples were resolved by 4–12% w/v acrylamide SDS–PAGE and detected by autoradiography. • H The graphs show the effect of GSK716 on intracellular and extracellular Z α1‐antitrypsin (mean ± SEM, n = 2). […]

For another data set, the target named is Cannabinoid CB1 (Homo sapiens, UniProt P21554). In words: Off‐target panel: Cannabinoid CB1 (DRX). It counts as cell-based. The method, then: GSK716 selectivity and PK properties were profiled in order to investigate the suitability of GSK716 for progression into in vivo studies and the potential for taking it forward as a clinical candidate for testing in humans. Since GSK716 results in loss of inhibitory activity of α1‐antitrypsin, the effect of the compound was assessed on other closely related serpins. […] Furthermore, there were no off‐target effects in a panel of assays considered predictive of known safety liabilities that precluded further development of GSK716 (Table EV1).
Chain of Cannabinoid CB1 (P21554 whole entry): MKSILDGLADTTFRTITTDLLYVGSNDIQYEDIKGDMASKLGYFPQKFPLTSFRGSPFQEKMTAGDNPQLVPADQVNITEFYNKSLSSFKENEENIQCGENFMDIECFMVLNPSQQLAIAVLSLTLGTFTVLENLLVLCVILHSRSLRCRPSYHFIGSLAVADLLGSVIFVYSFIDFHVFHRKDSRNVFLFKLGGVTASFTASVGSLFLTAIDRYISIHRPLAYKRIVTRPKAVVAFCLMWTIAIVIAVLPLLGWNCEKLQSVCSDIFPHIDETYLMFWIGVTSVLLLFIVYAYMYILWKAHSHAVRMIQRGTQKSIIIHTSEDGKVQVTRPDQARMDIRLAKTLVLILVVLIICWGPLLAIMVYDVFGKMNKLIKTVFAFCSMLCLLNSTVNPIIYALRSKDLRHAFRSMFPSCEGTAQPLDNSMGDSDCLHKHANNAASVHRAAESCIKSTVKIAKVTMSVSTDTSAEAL

pEC50: −log10 of the molar value. Where only a bound is given, the exact number is not on record here.

`CCC[C@@H](NC(=O)c1cccc2c1CC(=O)N2)[C@@H](O)c1cccc(F)c1C` [GSK716]: the “formation of soluble and insoluble polymers” value in data set [1] was “significantly reduced”. This compound also gave a pEC50 on Cannabinoid CB1 of under 4.00.
